This is an account of results in patent US20060183773A1, “Uses of methylphenidate derivatives” (priority 2005, published 2006).

For one data set, the system named is HUVECs. The data set is described as follows: Cell death of HUVECs in the TNFα/IL-8 experiment. The format is cell-based, human. Conditions: highest dose (30 μg/ml). How it is done:
Passage 4 HUVECs, human source lot number 8710 (obtained from ATCC), were put into the wells of a 24-well tissue culture plate at 5,000 cells/well in EGM-2 medium (obtained from Cambrex) and cultured for 72 hours at 37° C. and 5% CO2. […] After incubation for 1 hour at 37° C. and 5% CO2, TNFα (obtained from Pierce) was added to give a final concentration of 10 ng/ml, and the cells were incubated for an additional 18 hours at 37° C. and 5% CO2. After this incubation, the supernatants were collected, and the amount of IL-8 in the supernatants determined by ELISA as described in Example 4.

The subject of another data set is IL-8. Nature of the data set: IL-8 release by TNFα-stimulated HUVECs, ELISA. The format is cell-based, human. Conditions: HUVECs lot 8710, no TNFα, no additives 207.15. For orientation: ELISA stands for enzyme-linked immunosorbent assay.

In the case of `COC(=O)C(c1ccc(-c2ccccc2)cc1)C1CCCCN1` (stereo not drawn) [Cpd II], the cell death entry in the data set on HUVECs is given as “some cell death”. Also, the figures for the “Mean IL-8” value with IL-8 (15 μg/ml) and in the data set on IL-8 (30 μg/ml) were 400.35 pg/mL and 0 pg/mL, respectively.
